Patent US8598226B2, “Fused cyclic compounds” (Takeda Pharmaceutical Company Limited, priority 2006, dated 2013)
Structures can show the parent of a compound that is named as a salt.

molecular target: T1, human-derived GPR40 (Homo sapiens, UniProt O14842); test: Receptor function modulating action (agonist action) on human-derived GPR40: variation in intracellular calcium concentration in CHO cells (FLIPR or Cell Lux); assay type: cell-based; conditions: each compound at 1 μM; relative to activity of 10 μM γ-linolenic acid = 100%; CHO cell line stably expressing human-derived GPR40; FLIPR for Examples 2, 6, 8, 10, 11, 13, Cell Lux for Examples 19-34
T1 construct: expressed in transfected cells
Description: A CHO cell line stably expressing human-derived GPR40 was used for determining the agonist activity. […] One day before the assay, the cells cultured to near confluence were rinsed with PBS (Invitrogen), detached using 0.5 mM EDTA (Wako Pure Chemical Industries, Ltd.) and recovered by centrifugation. The obtained cells were counted and diluted to 3×10^5 cells per 1 mL medium. The cells were dispensed to a 96-well black clear bottom plate (Coster) by 100 μL per well and cultured overnight in a CO2 incubator. To the CHO cells prepared in this manner were added various test compounds, and variation in the intracellular calcium concentration was measured using FLIPR (Molecular Device) or Cell Lux (PerkinElmer). For measurement of variation in the intracellular calcium concentration using FLIPR or Cell Lux, the following pretreatment was performed. […] Then, a fluorescence dye solution was dispensed by 100 μL per well, and the cells were cultured in a CO2 incubator for 1 hr to allow intake of the fluorescence dye. During this time, the test compound was diluted to a given concentration with the assay buffer, and dispensed to a polypropylene 96-well plate (sample plate) by 100 μL. The cell plate and the sample plate were simultaneously set in the FLIPR or Cell Lux. After the foregoing pretreatment, variation in the intracellular calcium concentration after addition of 50 μL of various test compounds was measured using FLIPR or Cell Lux.

T1 sequence (O14842 whole entry): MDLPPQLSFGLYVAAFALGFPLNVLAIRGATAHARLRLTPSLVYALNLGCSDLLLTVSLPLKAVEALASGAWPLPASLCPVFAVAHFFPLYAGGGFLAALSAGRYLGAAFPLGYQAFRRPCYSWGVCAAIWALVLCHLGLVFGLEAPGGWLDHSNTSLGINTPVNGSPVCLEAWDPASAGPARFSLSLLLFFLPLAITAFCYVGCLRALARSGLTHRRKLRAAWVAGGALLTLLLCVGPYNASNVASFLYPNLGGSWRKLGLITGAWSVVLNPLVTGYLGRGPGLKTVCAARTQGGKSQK

**Q.** For `Cc1cc(OC2CCS(=O)(=O)CC2)cc(C)c1-c1cccc(COc2ccc3c(c2)OC[C@H]3CC(=O)O)c1` [Example 2, [(3S)-6-({4′-[(1,1-dioxidotetrahydro-2H-thiopyran-4-yl)oxy]-2′,6′-dimethylbiphenyl-3-yl}methoxy)-2,3-dihydro-1-benzofuran-3-yl]acetic acid], which activation at 1 µM is on record?
**A.** 107%

**Q.** `Cc1cc(OCC2(O)CCS(=O)(=O)CC2)cc(C)c1-c1cccc(COc2ccc3c(c2)OC[C@H]3CC(=O)O)c1` [Example 6, [(3S)-6-({4′-[(4-hydroxy-1,1-dioxidotetrahydro-2H-thiopyran-4-yl)methoxy]-2′,6′-dimethylbiphenyl-3-yl}methoxy)-2,3-dihydro-1-benzofuran-3-yl]acetic acid] was tested. Which activation at 1 µM did it give?
**A.** 102%

**Q.** With `Cc1c(C)c(-c2cccc(COc3ccc4c(c3)OC[C@H]4CC(=O)O)c2)c(C)c(C)c1OCCCS(C)(=O)=O` [Example 8, [(3S)-6-({2′,3′,5′,6′-tetrameramethyl-4′-[3-(methylsulfonyl)propoxy]biphenyl-3-yl}methoxy)-2,3-dihydro-1-benzofuran-3-yl]acetic acid] as the molecule, how does the activation at 1 µM read?
**A.** 112%

**Q.** For `Cc1cc(OCCCS(C)(=O)=O)cc(C)c1-c1cccc(COc2ccc3c(c2)OC[C@H]3CC(=O)O)c1` [Example 10, [(3S)-6-({2′,6′-dimethyl-4′-[3-(methylsulfonyl)propoxy]biphenyl-3-yl}methoxy)-2,3-dihydro-1-benzofuran-3-yl]acetic acid], which Relative activity value is on record?
**A.** 114%

**Q.** With `CCS(=O)(=O)CCOc1cc(C)c(-c2cccc(COc3ccc4c(c3)OC[C@H]4CC(=O)O)c2)c(C)c1` [Example 11, [(3S)-6-({4′-[2-(ethylsulfonyl)ethoxy]-2′,6′-dimethylbiphenyl-3-yl}methoxy)-2,3-dihydro-1-benzofuran-3-yl]acetic acid] as the molecule, how does the activation at 1 µM read?
**A.** 120%

**Q.** `Cc1cc(OCCCS(C)(=O)=O)c(F)c(C)c1-c1cccc(COc2ccc3c(c2)OC[C@H]3CC(=O)O)c1` [Example 13, [(3S)-6-({3′-fluoro-2′,6′-dimethyl-4′-[3-(methylsulfonyl)propoxy]biphenyl-3-yl}methoxy)-2,3-dihydro-1-benzofuran-3-yl]acetic acid] was tested. Which activation at 1 µM did it give?
**A.** 125%

**Q.** Which activation at 1 µM does the source give for `Cc1cc(OCCCS(C)(=O)=O)cc(CO)c1-c1cccc(COc2ccc3c(c2)OC[C@H]3CC(=O)O)c1` [Example 19, [(3S)-6-({2′-(hydroxymethyl)-6′-methyl-4′-[3-(methylsulfonyl)propoxy]biphenyl-3-yl}methoxy)-2,3-dihydro-1-benzofuran-3-yl]acetic acid] here?
**A.** 118%

**Q.** For `Cc1cc(OCCCS(C)(=O)=O)c(Cl)c(C)c1-c1cccc(COc2ccc3c(c2)OC[C@H]3CC(=O)O)c1` [Example 22, [(3S)-6-({3′-chloro-2′,6′-dimethyl-4′-[3-(methylsulfonyl)propoxy]biphenyl-3-yl}methoxy)-2,3-dihydro-1-benzofuran-3-yl]acetic acid], which activation at 1 µM is on record?
**A.** 121%

**Q.** How did the activation at 1 µM turn out when `Cc1c(Cl)c(OCCCS(C)(=O)=O)c(Cl)c(C)c1-c1cccc(COc2ccc3c(c2)OC[C@H]3CC(=O)O)c1` [Example 24, [(3S)-6-({3′,5′-dichloro-2′,6′-dimethyl-4′-[3-(methylsulfonyl)propoxy]biphenyl-3-yl}methoxy)-2,3-dihydro-1-benzofuran-3-yl]acetic acid] was run?
**A.** 96%

**Q.** For `CCc1cc(OCCCS(C)(=O)=O)cc(CC)c1-c1cccc(COc2ccc3c(c2)OC[C@H]3CC(=O)O)c1` [Example 26, [(3S)-6-({2′,6′-diethyl-4′-[3-(methylsulfonyl)propoxy]biphenyl-3-yl}methoxy)-2,3-dihydro-1-benzofuran-3-yl]acetic acid], which activation at 1 µM is on record?
**A.** 101%

**Q.** `CCc1c(Cl)c(OCCCS(C)(=O)=O)c(Cl)c(CC)c1-c1cccc(COc2ccc3c(c2)OC[C@H]3CC(=O)O)c1` [Example 28, [(3S)-6-({3′,5′-dichloro-2′,6′-diethyl-4′-[3-(methylsulfonyl)propoxy]biphenyl-3-yl}methoxy)-2,3-dihydro-1-benzofuran-3-yl]acetic acid] was tested. Which activation at 1 µM did it give?
**A.** 92%

**Q.** Which activation at 1 µM does the source give for `Cc1cc(OCCCS(C)(=O)=O)cc(C)c1-c1cc(COc2ccc3c(c2)OC[C@H]3CC(=O)O)ccc1Oc1ccccc1` [Example 30, [(3S)-6-({2′,6′-dimethyl-4′-[3-(methylsulfonyl)propoxy]-6-phenoxybiphenyl-3-yl}methoxy)-2,3-dihydro-1-benzofuran-3-yl]acetic acid 0.5 calcium salt] here?
**A.** 108%

**Q.** `Cc1cc(OCCCS(C)(=O)=O)cc(C)c1-c1cc(COc2ccc3c(c2)OC[C@H]3CC(=O)O)ccc1COc1ccccc1` [Example 32, [(3S)-6-({2′,6′-dimethyl-4′-[3-(methylsulfonyl)propoxy]-6-(phenoxymethyl)biphenyl-3-yl}methoxy)-2,3-dihydro-1-benzofuran-3-yl]acetic acid] was tested. Which activation at 1 µM did it give?
**A.** 104%

**Q.** `Cc1cc(OCCCS(C)(=O)=O)cc(C)c1-c1cc(COc2ccc3c(c2)OC[C@H]3CC(=O)O)c(F)cc1OCc1ccccc1` [Example 34, [(3S)-6-({6-(benzyloxy)-4-fluoro-2′,6′-dimethyl-4′-[3-(methylsulfonyl)propoxy]biphenyl-3-yl}methoxy)-2,3-dihydro-1-benzofuran-3-yl]acetic acid] was tested. Which activation at 1 µM did it give?
**A.** 119%

same assay, conditions: each compound at 1 μM; relative to activity of 10 μM γ-linolenic acid = 100%; CHO cell line stably expressing human-derived GPR40; FLIPR for Examples 2, 6, 8, 10, 11, 13, Cell Lux for Examples 19-34; hydrate

**Q.** How did the Relative activity value turn out when `Cc1cc(OCCCS(C)(=O)=O)cc(C)c1-c1cccc(COc2ccc3c(c2)OC[C@H]3CC(=O)O)c1` [Example 20, [(3S)-6-({2′,6′-dimethyl-4′-[3-(methylsulfonyl)propoxy]biphenyl-3-yl}methoxy)-2,3-dihydro-1-benzofuran-3-yl]acetic acid 0.5 hydrate] was run?
**A.** 118%

same assay, conditions: reference agonist at 10 μM, its activity set as 100%; CHO cell line stably expressing human-derived GPR40

**Q.** Which Relative activity value does the source give for `CCCCC/C=C\C/C=C\C/C=C\CCCCC(=O)O` [γ-linoleic acid, γ-linolenic acid, reference compound] here?
**A.** 100%
